{"source": "patent US20020165594A1", "about": "“Apparatus and method of photodynamic eradication of organisms utilizing pyrrolnitrin” (Merrill A. Biel, priority 2001, published 2002)", "origin": "cited, not measured here", "conditions": "orally and intravenously in high doses", "data": [{"compound": "CN(C)c1ccc2nc3ccc(=[N+](C)C)cc-3sc2c1", "note": "[Methylene blue]", "values": [{"measurement": "toxic effects on administration to humans", "value": "without any toxic effects"}]}]}
